Holding throughout (type): cell-based, Escherichia coli
One assay concerns E. coli TEM-30. To be noted: for Interoretation: E. coli TEM-30; for Interpretation: VITEK 2 AST card. The protocol:
(§1) Beta-lactamase clinical samples were collected from University Hospitals Leuven and tested for ESBL production using the disk diffusion method. The beta-lactamase reference isolates were purchased from International Health Management Associates (IHMA). Bacterial strains were cultivated in Mueller–Hinton Broth (MHB, Difco) at 37 °C. Whenever required, growth media were supplemented with appropriate antibiotics to the medium or plates (kanamycin 30 µg/mL, L-arabinose 0.5 mg/mL, and IPTG […]). Escherichia coli BL21 (ThermoFisher Scientific, Belgium) was used for cloning and plasmid amplification. For the selection of antibiotic resistant colonies, E. coli carrying plasmids was grown in LB agar plates supplemented with the relevant antibiotic. Bacterial CFU counting was done on blood agar plates (BD Biosciences, Belgium) or MHA agar plates. Species identification and antibiograms for all clinical isolates were performed using MALDI-Tof and VITEK® 2 automated system (BioMérieux, France).
(§2) Khodaparast et al Supplementary data
(§3) study. […] Abbreviations: S,
(§4) susceptible; I, intermediate; R, resistant.

The test system of the next assay is E. coli NDM5a. Description: VITEK 2 AST antimicrobial susceptibility testing. To be noted: for Interpretation: VITEK 2 AST card; for Interoretation: E. coli NDM5a. The method, then: as §1, §2, §3, §4
Another assay deals with E. coli NDM5b. Description: VITEK 2 AST antimicrobial susceptibility testing. To be noted: for Interpretation: VITEK 2 AST card; for Interoretation: E. coli NDM5b. The protocol: as §1, §2, §3, §4
In the next assay the test system is E. coli SHV1 (APHA). Nature of the assay: VITEK 2 AST antimicrobial susceptibility testing. To be noted: for Interoretation: E. coli SHV154; for Interpretation: VITEK 2 AST card. The protocol:
as §1, §2, §3, §4

A further assay has as its system E. coli TEM-104. Description: VITEK 2 AST antimicrobial susceptibility testing. To be noted: for Interoretation: E. coli TEM-104; for Interpretation: VITEK 2 AST card. The protocol: as §1, §2, §3, §4
The next assay concerns E. coli TEM-148. Nature of the assay: VITEK 2 AST antimicrobial susceptibility testing. To be noted: for Interoretation: E. coli TEM-148; for Interpretation: VITEK 2 AST card. The protocol: as §1, §2, §3, §4
The test system of another assay is E. coli TEM-16. Nature of the assay: VITEK 2 AST antimicrobial susceptibility testing. To be noted: for Interpretation: VITEK 2 AST card; for Interoretation: E. coli TEM-16. The protocol: as §1, §2, §3, §4
In another assay the test system is E. coli TEM-206. Nature of the assay: VITEK 2 AST antimicrobial susceptibility testing. To be noted: for Interoretation: E. coli TEM-206; for Interpretation: VITEK 2 AST card. The protocol:
as §1, §2, §3, §4

In a further assay the test system is E. coli. To be noted: E.coli TEM104, Suppl. Figure 5. The protocol:
For the analysis of synergy between the peptides and other antibiotics, a checkerboard assay was performed. Based on the MICs of the selected peptides, a checkerboard assay was designed to define their FICIs (Fractional Inhibitory Concentration Index) in combinations against different clinical isolates[53],[54]. Briefly, a total volume of 100 μL of Mueller–Hinton broth was distributed into each well of the 96-well plates. The first compound (peptide) of the combination was serially diluted vertically (128, 64, 32, 16, 8, 4, 2, 0 μg/mL) while the other drug (Beta-lactam or Kanamycin) was diluted horizontally in a 96-well plate (from 3200 to 3 μg/ mL). The total volume of each microtiter well was inoculated with 100 μL of MHB containing 1 × 10^6 CFU/mL bacteria. The plates were incubated at 37 °C for 24 h under aerobic conditions without shaking. Calculation of the FICI is used to analyze the results of the checkerboard assay by estimating the degree of synergistic effect. FICI is calculated as the sum of the individual fractional inhibitory concentrations (FICs) for each drug (where MIC A and MIC B denote the MIC of each drug alone, and MIC AA+B and MIC BA+B denote the concentrations of A and B in the drug combination). FICI = (MIC AA+B/MIC A) + (MIC BA+B/MIC B). With FICI ≤ 0.5, the combination of antibiotics is considered as a synergistic effect, 0.5 < FICI ≤ 1 indicates additivity, FICI > 1 indicates indifference. […]
Supplementary Figure 5: Fraction Inhibitory Concentration Index (FICI) values obtained from checkerboard assays between control peptides 1-4 and penicillin G. The peptide sequences were obtained by introducing proline mutations in TEM3.2 as follows: Pro1 […]
([…]), Pro2 ([…]), Pro3
([…]) and Pro4 ([…]). Each of the five dots […]
per condition indicates an independent experiment of the measurement consisting of 96 datapoints. FICI values below 0.5 indicate synergy (shaded in green). Values between 0.5 and 1.0 indicate additivity (shaded in yellow) and values greater than 1 indicate indifference (shaded in red) between the combined substances. […]

This passage reports Interoretation, Interpretation and FICi values results from PMC10492782, “Exploiting the aggregation propensity of beta-lactamases to design inhibitors that induce enzyme misfolding” (Nature Communications, 2023).

Read-outs that look alike come from different tables or passages of the source.

Consider `CO[C@@]1(NC(=O)C(C(=O)O)c2ccsc2)C(=O)N2[C@@H](C(=O)O)C(C)(C)S[C@@H]21` (stereo partly shown) [Temocillin], for which the Interoretation entry in the assay on E. coli TEM-30 was “S”; with E. coli SHV1 (APHA) it was “R”; with E. coli TEM-104 it was “S”; in the assay on E. coli TEM-148 it was “S”; with E. coli TEM-206, “S”. Besides, the Interpretation result is recorded as “S” in the assay with E. coli TEM-30; “R” in the assay on E. coli NDM5a; “R” in the assay on E. coli NDM5b; “R” in the assay on E. coli SHV1 (APHA); “S” in the assay on E. coli TEM-104; “S” in the assay on E. coli TEM-148. For the same molecule, the Interpretation result with E. coli TEM-16 is “R”; in the assay with E. coli TEM-206, “S”.

On to `CN(C)c1cc(NC(=O)CNC(C)(C)C)c(O)c2c1C[C@H]1C[C@H]3[C@H](N(C)C)C(O)=C(C(N)=O)C(=O)[C@@]3(O)C(O)=C1C2=O` [Tigecycline], for which the Interoretation entry with E. coli TEM-30 was “I”; in the assay with E. coli NDM5a, “S”; in the assay with E. coli NDM5b, “S”; in the assay on E. coli SHV1 (APHA), “S”; with E. coli TEM-104, “S”; with E. coli TEM-148, “S”. In addition, the Interoretation result in the assay with E. coli TEM-16 and in the assay on E. coli TEM-206 was “S” each time. Besides, the Interpretation entry is on record as “I” in the assay on E. coli TEM-30; “S” in the assay on E. coli NDM5a; “S” in the assay on E. coli NDM5b; “S” in the assay on E. coli SHV1 (APHA); “S” with E. coli TEM-104; “S” with E. coli TEM-148. For the same molecule, the Interpretation entry with E. coli TEM-16 and with E. coli TEM-206 was “S” throughout.

Take `NC[C@H]1O[C@H](O[C@H]2[C@H](O)[C@@H](O[C@H]3O[C@H](CO)[C@@H](O)[C@H](N)[C@H]3O)[C@H](N)C[C@@H]2N)[C@H](N)C[C@@H]1O` [Tobramycin]: the Interoretation entry in the assay on E. coli TEM-30 is “*R”; with E. coli NDM5a, “R”; with E. coli NDM5b, “S”; in the assay on E. coli SHV1 (APHA) it was “*R”; in the assay with E. coli TEM-104, “S”; in the assay with E. coli TEM-148, “S”. Also, the Interoretation entry in the assay on E. coli TEM-16 and in the assay on E. coli TEM-206 was “S” in each case. The Interpretation entry in the assay on E. coli TEM-30 is reported as “*R”; in the assay with E. coli NDM5a, “R”; in the assay with E. coli NDM5b, “S”; with E. coli SHV1 (APHA) it was “*R”; with E. coli TEM-104 it was “S”; in the assay with E. coli TEM-148, “S”. Also, in the assay on E. coli TEM-16, the Interpretation result is listed as “S”.

As for Ac-RLPPFLHNRRPRLPPFLRQRR-NH2 [Pro2], the FICi values with E. coli (Replicate1) is listed as 0.75; in the assay with E. coli (Replicate2), 0.625; with E. coli (Replicate3), 0.67; in the assay on E. coli (Replicate4), 0.71.

With Ac-RLTPFPHNRRPRLTPFPRQRR-NH2 [Pro4], the FICi values with E. coli (Replicate1), in the assay with E. coli (Replicate2), in the assay with E. coli (Replicate3) and in the assay on E. coli (Replicate4) was 2 in each case.

With Ac-RPTAPLHNRRPRPTAPLRQRR-NH2 [Pro1], the FICi values in the assay with E. coli (Replicate1), in the assay on E. coli (Replicate2), in the assay with E. coli (Replicate3) and in the assay on E. coli (Replicate4) was 2 throughout.

Regarding Ac-RPTPFLHNRRPRPTPFLRQRR-NH2 [Pro3], the FICi values with E. coli (Replicate1), in the assay on E. coli (Replicate2), in the assay with E. coli (Replicate3) and in the assay with E. coli (Replicate4) was 2 throughout.

For the molecule Amoxicillin + clavulanic acid, the Interoretation result in the assay on E. coli TEM-30 is recorded as “*R”; in the assay with E. coli NDM5a, “R”; in the assay with E. coli NDM5b, “R”; with E. coli SHV1 (APHA), “R”; in the assay with E. coli TEM-104, “R”; in the assay with E. coli TEM-148, “*R”. Also, the Interoretation entry in the assay with E. coli TEM-16 and with E. coli TEM-206 was “*R” throughout. For the same molecule, the Interpretation result in the assay on E. coli TEM-30 is “*R”; in the assay with E. coli NDM5a, “R”; with E. coli NDM5b, “R”; in the assay on E. coli SHV1 (APHA) it was “R”; in the assay on E. coli TEM-104, “R”; in the assay with E. coli TEM-148, “*R”. In addition, the Interpretation entry in the assay on E. coli TEM-16 and with E. coli TEM-206 was “*R” throughout.

Colistin: the Interoretation result with E. coli TEM-30, with E. coli NDM5a, in the assay on E. coli NDM5b, with E. coli SHV1 (APHA), with E. coli TEM-104 and in the assay on E. coli TEM-148 was “S” in each case. Also, the Interoretation entry in the assay on E. coli TEM-16 and with E. coli TEM-206 was “S” in each case. In addition, the Interpretation result in the assay with E. coli TEM-30, with E. coli NDM5a, in the assay with E. coli NDM5b, in the assay on E. coli SHV1 (APHA), in the assay with E. coli TEM-104 and in the assay with E. coli TEM-148 was “S” in each case. In addition, the Interpretation entry in the assay on E. coli TEM-16 and in the assay with E. coli TEM-206 was “S” each time.

On to Piperacillin / tazobactam, for which the Interoretation entry is recorded as “*R” in the assay with E. coli TEM-30; “R” in the assay with E. coli NDM5a; “R” with E. coli NDM5b; “R” in the assay on E. coli SHV1 (APHA); “*I” in the assay with E. coli TEM-104; “*R” in the assay with E. coli TEM-148. Also, the Interoretation result in the assay on E. coli TEM-16 and with E. coli TEM-206 was “*R” in each case. For the same molecule, the Interpretation entry in the assay on E. coli TEM-30 is “*R”; in the assay on E. coli NDM5a, “R”; in the assay with E. coli NDM5b it was “R”; with E. coli SHV1 (APHA), “R”; in the assay on E. coli TEM-104, “*I”; in the assay with E. coli TEM-148 it was “*R”. The Interpretation result with E. coli TEM-16 and with E. coli TEM-206 was “*R” each time.

Regarding Trimethoprim/sulfamethoxazole, the Interoretation entry in the assay on E. coli TEM-30 is “S”; in the assay on E. coli NDM5a, “S”; in the assay on E. coli NDM5b, “R”; in the assay with E. coli SHV1 (APHA), “R”; in the assay with E. coli TEM-104, “S”; in the assay with E. coli TEM-148, “R”. For the same molecule, the results for the Interoretation result in the assay on E. coli TEM-16 and in the assay on E. coli TEM-206 were “S” and “R”, respectively. For the same molecule, the Interpretation entry is given as “S” in the assay on E. coli TEM-30; “S” in the assay with E. coli NDM5a; “R” with E. coli NDM5b; “R” in the assay with E. coli SHV1 (APHA); “S” in the assay on E. coli TEM-104; “R” in the assay on E. coli TEM-148. The results for the Interpretation result with E. coli TEM-16 and in the assay with E. coli TEM-206 were “S” and “R”, respectively.
